{
  "source": "paper PMC6624297",
  "about": "(Cell Death & Disease, 2019)",
  "key": {"A549 cells [1]": {"test_system": "A549 cells", "experiment": "MTT assay A549", "type": "cell-based, human", "method": "(§1) Details are given in Supplementary Materials and Methods. Using probability unit and weighted regression method to calculate the IC50 value of compounds.\n(§2) Total cells in the logarithmic growth phase were collected, digested using 0.25% pancreatic enzymes, and then diluted into single-cell suspensions using phosphate-buffered solution (PBS). These cells were seeded into 96-well plates at 4× 10^3-5× 10^3 cells per well (100 µL per well) and then A549, H460, OVCAR-3, SGC7901, MDA-MB-231, HCT116 and HepG2 were cultured at 37°Cin an incubator containing 5% CO2. After cell complete attachment, 100 µL of different concentrations of compounds (0.625 μM, 1.25 μM, 2.5μM, 5 μM, 10 μM) were added to the cells after the nutrient solution in each well was discarded, while no compound except 0.1% DMSO was added to cells in the control group; at the same time, each concentration was set up to 5 wells. In addition, 5 wells in each 96-well plate only received 100 µL of nutrient solution as a blank control. The plates were taken out after the cells were incubated with compounds for 24 h, and 20 µL of MTT solution (5 mg/mL) (Wuhan Boster Biotechnology Limited Company, Wuhan, China; item No. AR1156) was added into all the wells. After another time of incubation for 4 h at 37 °C, the nutrient solution in each well was discarded slowly, and 150 µL of DMSO was added to each well. The plates were shaken on a shaking table for 20 min. When the crystals were fully dissolved, the blank wells were used to zero the plate reader. The optical density (OD) of each well was detected at 490 nm. The IC50 value was determined as the concentration of the inhibitor that caused 50% inhibition. Using probability unit and weighted regression method to calculate the IC50 value of compounds."}, "HTB-125 cell line": {"test_system": "HTB-125 cell line", "experiment": "Selectivity index against HTB-125", "type": "cell-based", "details": "SI = CC50/IC50"}, "H460 cells": {"test_system": "H460 cells", "experiment": "MTT assay H460", "type": "cell-based, human", "method": "as §1\nas §2, with “After another time of incubation for 4 h at 37 °C, the nutrient solution in each well was discarded slowly, and 150 µL of DMSO was added to each well. The plates were shaken on a shaking table for 20 min.” left out, “The IC50 value was determined as the concentration of the inhibitor that caused 50% inhibition. Using probability unit and weighted regression method to calculate the IC50 value of compounds.” left out"}, "A549 cells [2]": {"test_system": "A549 cells", "experiment": "Annexin V/PI staining flow cytometry, A549", "type": "cell-based, human", "details": "24 h", "method": "The density of the A549 cells and H460 in the logarithmic growth phase was adjusted to 1 × 10^6 cells/mL, and a total of 1 mL of cell suspension and 1 mL of L14e at different concentrations were added into each well with the final compound L14e concentration in each group as 0, 0.5, 1.0, and 1.5 μM. Details are given in Supplementary Materials and Methods.\nThe density of the A549 cells and H460 in the logarithmic growth phase was adjusted to 1 × 10^6 cells/mL, and then the cell suspension was seeded into a 6-well plate (Becton Dickinson and Company, USA). A total of 1 mL of cell suspension and 1 mL of compound L14e at different concentrations were added into each well with the final compound L14e concentration in each group as 0 μM, 0.5 μM, 1.0 μM, and 1.5μM. After cells were incubated for 24 h at 37 °C, 1 mL of cell suspension per well was collected and centrifuged at 1000 r/min for 10 min at 4°C, and the supernatant was removed. Then, 1 mL of cold PBS was added to the cell pellet, and was shaken lightly to re-suspend the cells. The cells were centrifuged at 1000 r/min at 4 °C for 10 min, and the supernatant was removed. These steps were repeated twice. The cells were re-suspended in 150µL of PBS, 10 µL of fluorescein isothiocyanate (FITC)-labeled Annexin V (Annexin V-FITC) (Promega Corporation, USA) and 5 µL of PI (Promega Corporation, USA) were added. The mixture was gently mixed and incubated in the dark at room temperature for 10 min then stained cells were analyzed using flow cytometry to test the levels of apoptotic cells (Becton Dickinson and Company, USA; FACS Calibur)."}, "[3]": {"test_system": "P53, caspase-3, bcl-2/bax, cleaved caspase-3", "experiment": "Western blot apoptotic proteins, H460", "type": "cell-based, human", "details": "H460, 0.5, 1.0, 1.5 μM, 24 h", "method": "A549 cells, H460 cells and HUVECs were treated with different concentrations of compound L14e for 24 h. Primary antibodies (100 μL/cm^2): P53(10442-1-AP, Proteintech Group),caspase-3 (19677-1-AP, Proteintech Group), bax (50599-2-lg, Proteintech Group), bcl-2 (12789-1-AP, Proteintech Group), cleaved caspase-3 (25546-1-AP, Proteintech Group), β-actin (60008-1-lg, Proteintech Group), EGFR (ab21074, Abcam), AKT (#2920, Cell Signaling Technology), ERK1/2 (#4370, Cell Signaling Technology), VEGFR-2 (#9698, Cell Signaling Technology), p-EGFR (ab40815, Abcam), p-AKT (#4060, Cell Signaling Technology), p-ERK1/2 (#4695, Cell Signaling Technology), p-VEGFR-2 (#3770, Cell Signaling Technology), and GAPDH (ab181603, Abcam). The cellular levels of proteins were determined by standard Western blotting. Details were given in Supplementary Materials and Methods.\nA549 cells, H460 cells and HUVECs were treated with different concentrations of compound L14e for 24 h, and collected to establish their respective treatment groups. […]\nExtracted proteins were separated from each other using polyacrylamide electrophoresis on a 10 % gel (Beyotime Biotechnology Company, Shanghai, China) and transferred to a polyvinylidene fluoride (PVDF) membrane. […] Gray values of protein bands were quantitatively analyzed, with the gray value of β-actin(GAPDH) band as the reference."}},
  "data": [
    {"smiles": "O=C(Nc1cccc(Cl)c1)Nc1ccccc1NS(=O)(=O)c1c[nH]c(=O)[nH]c1=O", "note": "[Compound L14e, N'-(3-chlorophenyl)-2-(2,4-dihydroxypyrimidine-5-sulfonamido)phenyl urea]", "values": [
      {"measurement": "anti-proliferative potency relative to PTX, A549", "setting": "A549 cells [1]", "result": "nearly five times higher"},
      {"measurement": "IC50", "setting": "A549 cells [1]; Homo sapiens, A549, 24h of treatment, mean ± SD", "result": "670 ± 220", "unit": "nM"},
      {"measurement": "SI (Selectivity index) HTB-125", "setting": "HTB-125 cell line", "result": 10.39},
      {"measurement": "anti-proliferative potency relative to PTX, H460", "setting": "H460 cells", "result": "nearly five times higher"},
      {"measurement": "inhibition of proliferation of H460 cells compared with PTX and compound 10l", "setting": "H460 cells; Fig. 2B(b)", "result": "significantly more inhibitory"},
      {"measurement": "apoptotic rate", "setting": "A549 cells [2]; A549, 0.5 μM", "result": 19.3, "unit": "%"},
      {"measurement": "late apoptosis rate (Q2, Annexin V [+] PI [+])", "setting": "A549 cells [2]; A549, 0.5 μM", "result": 17.7, "unit": "%"},
      {"measurement": "late apoptosis rate (Q2, Annexin V [+] PI [+])", "setting": "A549 cells [2]; A549, 1.0 μM", "result": 27.5, "unit": "%"},
      {"measurement": "apoptotic rate", "setting": "A549 cells [2]; A549, 1.5 μM", "result": 43.5, "unit": "%"},
      {"measurement": "late apoptosis rate (Q2, Annexin V [+] PI [+])", "setting": "A549 cells [2]; A549, 1.5 μM", "result": 37.1, "unit": "%"},
      {"measurement": "expression of P53, bax, bcl-2, cleaved caspase-3", "setting": "[3]", "result": "over expression of P53, up-regulation of bax and down-regulation of bcl-2"}
    ]}
  ]
}
